# Test results: patent US10852236B2, “Method of measuring plant nutrient transport using near-infrared imaging” (Curadel, LLC, priority 2017, dated 2020)
# Tests used:
# [1] = in vivo early half-life of the dye; conditions: dye in its small molecule form
# [2] = solubility of the dye in the plant nutrient; assay type: physicochemical; conditions: dye in its small molecule form; nutrient may be water
compound,measurement,setting,value
"CC1(C)C(/C=C/C=C/C=C/C=C2\N(CCCCS(=O)(=O)O)c3ccc4ccccc4c3C2(C)C)=[N+](CCCCS(=O)(=O)[O-])c2ccc3ccccc3c21 [Indocyanine green, indocyanine green]",in vivo early half-life,[1],shorter
same,solubility in the nutrient,[2],somewhat less soluble
